Measurements reported in patent US12594277B2, “Macrocyclic ULK1/2 inhibitors” (SALK INSTITUTE FOR BIOLOGICAL STUDIES, priority 2020, dated 2026).

Key:
[1] = target: T1, NanoLuc-ULK1 fusion in HEK293T cells (Homo sapiens, UniProt O75385); assay: ULK1 NanoBRET assay; type: cell-based; settings: HEK293T transfected with NanoLuc-ULK1 Fusion Vector, Tracer K-5, 2 h incubation
T1 construct: host or cells: HEK293T
T1 sequence (O75385 1-1050): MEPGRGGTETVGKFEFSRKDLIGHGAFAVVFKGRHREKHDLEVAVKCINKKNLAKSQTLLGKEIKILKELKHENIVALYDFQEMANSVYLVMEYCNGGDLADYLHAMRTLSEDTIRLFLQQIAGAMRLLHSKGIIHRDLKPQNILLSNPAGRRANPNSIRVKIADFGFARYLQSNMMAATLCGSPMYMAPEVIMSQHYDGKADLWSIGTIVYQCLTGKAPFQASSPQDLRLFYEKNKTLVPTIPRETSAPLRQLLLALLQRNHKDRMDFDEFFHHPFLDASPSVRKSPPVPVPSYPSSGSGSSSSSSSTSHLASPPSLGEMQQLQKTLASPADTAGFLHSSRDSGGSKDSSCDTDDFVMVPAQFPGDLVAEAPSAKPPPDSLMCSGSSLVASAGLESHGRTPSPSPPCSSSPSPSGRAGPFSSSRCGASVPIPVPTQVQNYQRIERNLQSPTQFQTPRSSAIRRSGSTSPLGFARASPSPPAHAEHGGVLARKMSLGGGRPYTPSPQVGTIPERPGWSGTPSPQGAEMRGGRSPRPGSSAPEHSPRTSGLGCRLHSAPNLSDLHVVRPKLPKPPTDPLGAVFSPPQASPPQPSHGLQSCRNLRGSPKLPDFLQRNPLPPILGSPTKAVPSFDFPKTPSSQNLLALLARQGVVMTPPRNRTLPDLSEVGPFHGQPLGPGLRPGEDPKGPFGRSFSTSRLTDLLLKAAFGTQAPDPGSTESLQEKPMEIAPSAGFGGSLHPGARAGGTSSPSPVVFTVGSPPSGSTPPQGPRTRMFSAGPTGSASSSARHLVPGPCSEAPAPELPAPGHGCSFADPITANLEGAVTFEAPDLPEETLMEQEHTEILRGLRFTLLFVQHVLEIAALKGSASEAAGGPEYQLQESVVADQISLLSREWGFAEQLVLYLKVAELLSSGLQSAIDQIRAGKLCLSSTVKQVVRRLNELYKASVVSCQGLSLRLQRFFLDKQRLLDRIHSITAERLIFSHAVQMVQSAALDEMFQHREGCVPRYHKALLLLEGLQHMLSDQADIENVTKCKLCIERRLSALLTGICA
Method: IC50s were also measured by ULK1 NanoBRET assay according to the following protocol: Human embryonic kidney cells (HEK293T) were transfected with NanoLuc®-ULK1 Fusion Vector (Promega #NV2211) using jetPRIME transfection reagent (Polyplus Transfection #114-15). Following 24 h, cells were trypsinized and resuspended in Opti-MEM® I (1×), Reduced Serum Medium (Gibco, #11058-021). Approximately, 7,000 cells per well (in 34 μL total volume) were replated into non-binding surface 384 well plates. Complete NanoBRET 20× Tracer K-5 reagent was prepared according to the manufacturer's directions and 2 μL were added to each well of the 384 plate (assay plate). The assay plate was mixed on an orbital shaker for 15 seconds at 700 rpm. Compounds were serially diluted at 200× final concentration in […], then diluted to 10× final concentration in assay media (Opti-MEM® I, Reduced Serum Medium). Next, 4 μL 10× test compounds were added to each well of the assay plate, followed by mixing at 700 rpm for 15 seconds. The assay plate was incubated for 2 h in a 37 C incubator with […] and then equilibrated to RT for 15 min. The 3× Complete Substrate plus Inhibitor Solution was prepared according to the manufacturer's directions with a concentration of Extracellular NanoLuc® Inhibitor of 60 μM to be used at a working concentration of 20 μM. The 3× Complete Substrate plus Inhibitor Solution was mixed and 20 μL per well was added to the assay plate and incubated at RT for 2-3 min. Donor emission wavelength (450 nm) and acceptor emission wavelength (610 nm) were measured using an assay compatible luminometer (see manufacturer's specifications).

[2] = target: T2, recombinant human ULK1 protein (1-649) (Homo sapiens, UniProt O75385); assay: ULK1 inhibition assay (ADP-Glo); type: biochemical; settings: 2 ug/mL ULK1, 80 ug/mL myelin basic protein, 25 uM ATP, assessed after one hour
T2 construct: recombinant human ULK1 protein (1-649, SignalChem #U01-11G); purchased SignalChem U01-11G
T2 sequence (O75385 1-649): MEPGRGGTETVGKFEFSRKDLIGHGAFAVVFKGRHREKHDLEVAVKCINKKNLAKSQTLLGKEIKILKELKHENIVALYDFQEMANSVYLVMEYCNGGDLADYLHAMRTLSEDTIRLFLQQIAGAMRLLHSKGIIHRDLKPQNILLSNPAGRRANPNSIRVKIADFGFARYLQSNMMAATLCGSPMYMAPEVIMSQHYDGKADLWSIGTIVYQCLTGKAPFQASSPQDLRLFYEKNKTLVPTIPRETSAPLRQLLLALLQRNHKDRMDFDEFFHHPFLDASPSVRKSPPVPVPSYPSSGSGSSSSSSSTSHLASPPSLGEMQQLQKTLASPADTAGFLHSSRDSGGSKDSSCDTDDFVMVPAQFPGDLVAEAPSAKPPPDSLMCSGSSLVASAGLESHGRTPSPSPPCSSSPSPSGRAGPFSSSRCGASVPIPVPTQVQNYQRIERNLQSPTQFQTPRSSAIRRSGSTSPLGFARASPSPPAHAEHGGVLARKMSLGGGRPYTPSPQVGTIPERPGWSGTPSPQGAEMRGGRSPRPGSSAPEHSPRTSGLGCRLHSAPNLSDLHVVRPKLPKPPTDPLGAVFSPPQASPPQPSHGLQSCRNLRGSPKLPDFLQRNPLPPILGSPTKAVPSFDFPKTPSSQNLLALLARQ
Method: IC50s measured by ADP-Glo assay are represented nM, with A representing IC50<20 nM, B representing IC50>20 nM. NT indicates the compound was not tested. ULK1 inhibition assays were performed in a 5 uL reaction volume containing 2 ug/mL recombinant human ULK1 protein (1-649, SignalChem #U01-11G) and 80 ug/mL myelin basic protein (MBP, Sigma-Aldrich #M1891) in the presence of 25 uM ATP (Sigma-Aldrich A7699). ULK 1 inhibition was assessed after one hour. Compounds were tested in triplicate in a 16-dose IC50 mode with 3-fold serial dilution and a starting dose of 30 uM. Staurosporine, a non-selective protein kinase inhibitor, was used in the assay as a positive control. Three separate experiments were carried out.

**Q.** Which IC50 [1] does the source give for CNC(=O)c1ccc2cc1Nc1nc(ncc1C(F)(F)F)Nc1ccc(c(OC)c1)OCCCCCCO2 [Compound 17, 5^3-Methoxy-N-methyl-3^5-(trifluoromethyl)-6,13-dioxa-2,4-diaza-3(4,2)-pyrimidina-1(1,3),5 (1,4)-dibenzenacyclotridecaphane-16-carboxamide] here?
**A.** > 1000 nM

**Q.** And the IC50 [2]?
**A.** > 20 nM

**Q.** What does the source list for CNC(=O)c1cc2ccc1Nc1nc(ncc1C(F)(F)F)Nc1ccc(OC)c(c1)OC/C=C/CCCO2 [Compound 18, (E)-1^4-methoxy-N-methyl-3^5-(trifluoromethyl)-6,13-dioxa-2,4-diaza-3(2,4)-pyrimidina-1(1,3),5(1,4)-dibenzenacyclotridecaphan-10-ene-5^2-carboxamide]?
**A.** IC50 [1]: > 1000 nM; IC50 [2]: < 20 nM

**Q.** CNC(=O)c1cc2ccc1Nc1nc(ncc1C(F)(F)F)Nc1ccc(OC)c(c1)OC/C=C\CCCO2 [Compound 19, (Z)-1^4-methoxy-N-methyl-3^5-(trifluoromethyl)-6,13-dioxa-2,4-diaza-3(2,4)-pyrimidina-1(1,3),5(1,4)-dibenzenacyclotridecaphan-10-ene-5^2-carboxamide] was tested. Which IC50 [1] did it give?
**A.** < 1000 nM

**Q.** What about the IC50 [2] of the same molecule?
**A.** < 20 nM

**Q.** For CNC(=O)c1cc2ccc1Nc1nc(ncc1C(F)(F)F)Nc1ccc(OC)c(c1)OCCCCCCO2 [Compound 20, 1^4-Methoxy-N-methyl-3^5-(trifluoromethyl)-6,13-dioxa-2,4-diaza-3(2,4)-pyrimidina-1(1,3),5 (1,4)-dibenzenacyclotridecaphane-52-carboxamide], which IC50 [1] is on record?
**A.** > 1000 nM

**Q.** What about the IC50 [2] of the same molecule?
**A.** < 20 nM

**Q.** How did the IC50 [1] turn out when CNC(=O)c1ccc2cc1Nc1nc(ncc1C(F)(F)F)Nc1ccc(OC)c(c1)OC/C=C\CCO2 [Compound 21, (E)-1^4-methoxy-N-methyl-3^5-(trifluoromethyl)-6,12-dioxa-2,4-diaza-3(2,4)-pyrimidina-1,5(1,3)-dibenzenacyclododecaphan-9-ene-5^6-carboxamide] was run?
**A.** > 1000 nM

**Q.** What about the IC50 [2] of the same molecule?
**A.** > 20 nM

**Q.** With CNC(=O)c1ccc2cc1Nc1nc(ncc1C(F)(F)F)Nc1ccc(OC)c(c1)OC/C=C/CCO2 [Compound 22, (Z)-1^4-methoxy-N-methyl-3^5-(trifluoromethyl)-6,12-dioxa-2,4-diaza-3(2,4)-pyrimidina-1,5(1,3)-dibenzenacyclododecaphan-9-ene-5^6-carboxamide] as the molecule, how does the IC50 [1] read?
**A.** > 1000 nM

**Q.** What about the IC50 [2] of the same molecule?
**A.** > 20 nM

**Q.** CNC(=O)c1ccc2cc1Nc1nc(ncc1C(F)(F)F)Nc1ccc(OC)c(c1)OCCCCCO2 [Compound 23, 1^4-methoxy-N-methyl-3^5-(trifluoromethyl)-6,12-dioxa-2,4-diaza-3(2,4)-pyrimidina-1,5(1,3)-dibenzenacyclododecaphane-5^6-carboxamide] was tested. Which IC50 [1] did it give?
**A.** > 1000 nM

**Q.** And the IC50 [2]?
**A.** > 20 nM

**Q.** With CNC(=O)c1ccc2cc1Nc1nc(ncc1C(F)(F)F)Nc1ccc(c(OC)c1)OC/C=C/CCO2 [Compound 24, (E/Z)-5^3-Methoxy-N-methyl-3^5-(trifluoromethyl)-6,12-dioxa-2,4-diaza-3(4,2)-pyrimidina-1(1,3),5(1,4)-dibenzenacyclododecaphan-8-ene-1^6-carboxamide] as the molecule, how does the IC50 [1] read?
**A.** > 1000 nM

**Q.** What about the IC50 [2] of the same molecule?
**A.** > 20 nM

**Q.** What does the source list for CNC(=O)c1ccc2cc1OCCCCCOc1ccc(cc1OC)Nc1ncc(C(F)(F)F)c(n1)N2 [Compound 25, 5^3-Methoxy-N-methyl-3^5-(trifluoromethyl)-6,12-dioxa-2,4-diaza-3(4,2)-pyrimidina-1(1,3), 5(1,4)-dibenzenacyclododecaphane-1^6-carboxamide]?
**A.** IC50 [1]: > 1000 nM; IC50 [2]: > 20 nM
